Assay results published in US20150105252A1, “SUBSTITUTED PYRAZOLES AS HERBICIDES” (E I DU PONT DE NEMOURS AND COMPANY, priority 2013, published 2015).

Columns and labels:
waterhemp [1] = assay: Test C preemergence; assay type: in vivo, Amaranthus rudis; settings: preemergence; for Plant response rating, Waterhemp: 125 g ai/ha, scale 0 to 100, 0 = no effect, 100 = complete control
Outline: (§1)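 Seeds sown in loam–sand blend and treated preemergence with test chemicals in non-phytotoxic solvent with surfactant; postemergence plants in peat-based medium, treated at 2–18 cm (1- to 4-leaf stage). Greenhouse 13 to 15 days, then visual rating versus controls, 0 (no effect) to 100 (complete control).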

velvetleaf = assay: Test C preemergence; assay type: in vivo, Abutilon theophrasti; settings: preemergence; for Plant response rating, Velvetleaf: 125 g ai/ha, scale 0 to 100, 0 = no effect, 100 = complete control
Outline: as §1

crabgrass, large = assay: Test C preemergence; assay type: in vivo, Digitaria sanguinalis; settings: preemergence; for Plant response rating, Crabgrass, Large: 125 g ai/ha, scale 0 to 100, 0 = no effect, 100 = complete control
Outline: as §1

morningglory [2] = assay: Test C postemergence; assay type: in vivo, Ipomoea coccinea; settings: for Plant response rating (scale of 0 to 100 where 0 is no effect and 100 is complete control), Morningglory: Postemergence, 31 g ai/ha, visually evaluated after 13 to 15 days; for Morningglory plant response rating / Plant response rating, Morningglory: postemergence; for Morningglory plant response rating: 62 g ai/ha, scale 0 to 100
Outline: as §1

barnyardgrass = assay: Test B flood; assay type: in vivo, Echinochloa crus-galli; settings: 250 g ai/ha, visual rating on 0 to 100 scale (0 no effect, 100 complete control), 13 to 15 days
Outline: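 Plants were grown to the 2-leaf stage and pots flooded to 3 cm above soil. Compounds were applied directly into the paddy water, with depth kept for the test. After 13–15 days in greenhouse, response was rated visually against controls on a 0 (no effect) to 100 (complete control) scale.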

oilseed rape = assay: Test C postemergence; assay type: in vivo, Brassica napus; settings: for Oilseed Rape plant response rating / Plant response rating, Oilseed Rape: postemergence; for Oilseed Rape plant response rating: 62 g ai/ha, scale 0 to 100
Outline: as §1

wheat = assay: Test A postemergence; assay type: in vivo, Triticum aestivum
Outline: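 Pre- and postemergence greenhouse test; loam+sand; cpd in non-phytotox. solvent/surfactant; post at 1–2 leaf, 2–10 cm; visual score ~10 d, 0 = none, 100 = complete control.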

lambsquarters = assay: Test C preemergence; assay type: in vivo, Chenopodium album; settings: preemergence; for Plant response rating, Lambsquarters: 125 g ai/ha, scale 0 to 100, 0 = no effect, 100 = complete control
Outline: as §1

waterhemp [3] = assay: Test C postemergence; assay type: in vivo, Amaranthus rudis; settings: for Plant response rating, Waterhemp / Waterhemp plant response rating: postemergence; for Plant response rating, Waterhemp: 250 g ai/ha, scale 0 to 100 (0 no effect, 100 complete control); for Waterhemp plant response rating: scale 0 to 100
Outline: as §1

foxtail, giant = assay: Test C preemergence; assay type: in vivo, Setaria faberii; settings: preemergence; for Plant response rating, Foxtail, Giant: 125 g ai/ha, scale 0 to 100, 0 = no effect, 100 = complete control
Outline: as §1

nutsedge, yellow = assay: Test C postemergence; assay type: in vivo, Cyperus esculentus; settings: for Plant response rating (scale of 0 to 100 where 0 is no effect and 100 is complete control), Nutsedge, Yellow: Postemergence, 31 g ai/ha, visually evaluated after 13 to 15 days; for Nutsedge, Yellow plant response rating / Plant response rating, Nutsedge, Yellow: postemergence; for Nutsedge, Yellow plant response rating: 62 g ai/ha, scale 0 to 100
Outline: as §1

morningglory [4] = assay: Test C preemergence; assay type: in vivo, Ipomoea coccinea; settings: preemergence; for Plant response rating, Morningglory: 125 g ai/ha, scale 0 to 100, 0 = no effect, 100 = complete control
Outline: as §1

pigweed = assay: Test C preemergence; assay type: in vivo, Amaranthus retroflexus; settings: preemergence; for Plant response rating, Pigweed: 125 g ai/ha, scale 0 to 100, 0 = no effect, 100 = complete control
Outline: as §1

[5] = 31 g ai/ha, visual rating, scale 0 to 100 (0 no effect, 100 complete control), 13 to 15 days
[6] = 62 g ai/ha, scale 0 to 100 (0 no effect, 100 complete control), 13 to 15 days
[7] = 250 g ai/ha, scale 0 to 100, 0 is no effect, 100 is complete control
[8] = 250 g ai/ha, scale 0 to 100 (0 no effect, 100 complete control)
[9] = 125 g ai/ha, scale 0 to 100, 0 no effect, 100 complete control
[10] = Postemergence, 31 g ai/ha, visually evaluated after 13 to 15 days
[11] = Postemergence, 500 g ai/ha, 0 to 100 scale (0 no effect, 100 complete control)

## CCc1cc(C(=O)NC(C)C)nn1Cc1ccnc(C(F)(F)F)c1 [Compound 139]
Waterhemp [1]; [5]
  Waterhemp plant response rating: 85
Waterhemp [1]; [6]
  Waterhemp plant response rating: 100
Waterhemp [1]; 13 to 15 days
  Plant response rating, Waterhemp: 100
Waterhemp [1]; [7]
  Waterhemp plant response rating: 100
velvetleaf; [5]
  Velvetleaf plant response rating: 0
velvetleaf; [6]
  Velvetleaf plant response rating: 10
velvetleaf; 13 to 15 days
  Plant response rating, Velvetleaf: 95
velvetleaf; [7]
  Velvetleaf plant response rating: 100
crabgrass, large; [5]
  Crabgrass, Large plant response rating: 100
crabgrass, large; [6]
  Crabgrass, Large plant response rating: 100
crabgrass, large; 13 to 15 days
  Plant response rating, Crabgrass, Large: 100
crabgrass, large; [7]
  Crabgrass, Large plant response rating: 100
Morningglory [2]
  Plant response rating (scale of 0 to 100 where 0 is no effect and 100 is complete control), Morningglory: 60
  Morningglory plant response rating: 60
Morningglory [2]; [8]
  Plant response rating, Morningglory: 80
Morningglory [2]; [9]
  Plant response rating, Morningglory: 90
barnyardgrass
  Plant response rating, Barnyardgrass: 60
Oilseed rape; [10]
  Plant response rating (scale of 0 to 100 where 0 is no effect and 100 is complete control), Oilseed Rape: 20
Oilseed rape
  Oilseed Rape plant response rating: 45
Oilseed rape; [8]
  Plant response rating, Oilseed Rape: 50
Oilseed rape; [9]
  Plant response rating, Oilseed Rape: 50
wheat; [11]
  Wheat plant response rating: 90
wheat; postemergence, 125 g ai/ha, about 10 days, visual rating on 0 to 100 scale (0 no effect, 100 complete control)
  Wheat plant response rating: 50
lambsquarters; [5]
  Lambsquarters plant response rating: 35
lambsquarters; [6]
  Lambsquarters plant response rating: 85
lambsquarters; 13 to 15 days
  Plant response rating, Lambsquarters: 100
lambsquarters; [7]
  Lambsquarters plant response rating: 100
Waterhemp [3]; [10]
  Plant response rating (scale of 0 to 100 where 0 is no effect and 100 is complete control), Waterhemp: 30
Waterhemp [3]
  Plant response rating, Waterhemp: 65
  Waterhemp plant response rating: 55
foxtail, giant; [5]
  Foxtail, Giant plant response rating: 90
foxtail, giant; [6]
  Foxtail, Giant plant response rating: 100
foxtail, giant; 13 to 15 days
  Plant response rating, Foxtail, Giant: 100
foxtail, giant; [7]
  Foxtail, Giant plant response rating: 100
nutsedge, yellow
  Plant response rating (scale of 0 to 100 where 0 is no effect and 100 is complete control), Nutsedge, Yellow: 5
  Nutsedge, Yellow plant response rating: 5
nutsedge, yellow; [8]
  Plant response rating, Nutsedge, Yellow: 5
nutsedge, yellow; [9]
  Plant response rating, Nutsedge, Yellow: 5
Morningglory [4]; [5]
  Morningglory plant response rating: 5
Morningglory [4]; [6]
  Morningglory plant response rating: 35
Morningglory [4]; 13 to 15 days
  Plant response rating, Morningglory: 98
Morningglory [4]; [7]
  Morningglory plant response rating: 98
pigweed; [5]
  Pigweed plant response rating: 55
pigweed; [6]
  Pigweed plant response rating: 90
pigweed; 13 to 15 days
  Plant response rating, Pigweed: 90
pigweed; [7]
  Pigweed plant response rating: 100

## CCCc1cc(C(=O)NOCC)nn1Cc1ccnc(C(F)(F)F)c1 [Compound 185]
Waterhemp [1]; [5]
  Waterhemp plant response rating: 100
Waterhemp [1]; [6]
  Waterhemp plant response rating: 100
Waterhemp [1]; 13 to 15 days
  Plant response rating, Waterhemp: 100
Waterhemp [1]; [7]
  Waterhemp plant response rating: 100
velvetleaf; [5]
  Velvetleaf plant response rating: 20
velvetleaf; [6]
  Velvetleaf plant response rating: 65
velvetleaf; 13 to 15 days
  Plant response rating, Velvetleaf: 100
velvetleaf; [7]
  Velvetleaf plant response rating: 98
crabgrass, large; [5]
  Crabgrass, Large plant response rating: 80
crabgrass, large; [6]
  Crabgrass, Large plant response rating: 100
crabgrass, large; 13 to 15 days
  Plant response rating, Crabgrass, Large: 100
crabgrass, large; [7]
  Crabgrass, Large plant response rating: 100
Morningglory [2]
  Plant response rating (scale of 0 to 100 where 0 is no effect and 100 is complete control), Morningglory: 40
  Morningglory plant response rating: 45
Morningglory [2]; [8]
  Plant response rating, Morningglory: 75
Morningglory [2]; [9]
  Plant response rating, Morningglory: 85
barnyardgrass
  Plant response rating, Barnyardgrass: 20
Oilseed rape
  Oilseed Rape plant response rating: 40
Oilseed rape; [8]
  Plant response rating, Oilseed Rape: 70
Oilseed rape; [9]
  Plant response rating, Oilseed Rape: 50
wheat; Postemergence, 125 g ai/ha, 0 to 100 scale, 0 no effect, 100 complete control
  Wheat plant response rating: 0
wheat; [11]
  Wheat plant response rating: 80
lambsquarters; [5]
  Lambsquarters plant response rating: 98
lambsquarters; [6]
  Lambsquarters plant response rating: 98
lambsquarters; 13 to 15 days
  Plant response rating, Lambsquarters: 100
lambsquarters; [7]
  Lambsquarters plant response rating: 100
Waterhemp [3]
  Plant response rating, Waterhemp: 85
  Waterhemp plant response rating: 35
foxtail, giant; [5]
  Foxtail, Giant plant response rating: 60
foxtail, giant; [6]
  Foxtail, Giant plant response rating: 90
foxtail, giant; 13 to 15 days
  Plant response rating, Foxtail, Giant: 98
foxtail, giant; [7]
  Foxtail, Giant plant response rating: 100
nutsedge, yellow
  Plant response rating (scale of 0 to 100 where 0 is no effect and 100 is complete control), Nutsedge, Yellow: 0
  Nutsedge, Yellow plant response rating: 0
nutsedge, yellow; [8]
  Plant response rating, Nutsedge, Yellow: 10
nutsedge, yellow; [9]
  Plant response rating, Nutsedge, Yellow: 5
Morningglory [4]; [5]
  Morningglory plant response rating: 15
Morningglory [4]; [6]
  Morningglory plant response rating: 75
Morningglory [4]; 13 to 15 days
  Plant response rating, Morningglory: 85
Morningglory [4]; [7]
  Morningglory plant response rating: 98
pigweed; [5]
  Pigweed plant response rating: 100
pigweed; [6]
  Pigweed plant response rating: 100
pigweed; 13 to 15 days
  Plant response rating, Pigweed: 100
pigweed; [7]
  Pigweed plant response rating: 100
